The values that follow are results of earlier work, collected in patent US20240368000A1, “CARBON REMOVAL FROM SEAWATER AND OTHER LIQUIDS USING PHOTOACTIVE COMPOUNDS” (University of Washington, priority 2021, published 2024).

Molecules are shown by their SMILES.

The conditions of the data set: ground (dark) state of the photoacid; value from Wimberger et al., Chem. Commun. 2022, 58(37), 5610-5613.

As for `COc1ccc2c(c1)C(C)(C)C(/C=C\c1ccccc1O)=[N+]2CCCC[S@SP3](=O)(=O)[O-]` [merocyanine photoacid], the pKa-Dark was 7.33.
